# Test results taken from US6958318B2, “Recombinant bacterial cells for delivery of PNP to tumor cells” (The UAB Research Foundation, priority 1993, dated 2005).
# Where “and” joins values, the source holds several entries; their conditions need not be identical. Identical values can stand only once. Entries after “also recorded” stand apart in the source; their conditions may differ. Like-named read-outs stand apart in the source and are kept apart here.
# Experiments:
# [1] = target: T1, human PNP (Homo sapiens, UniProt P00491); assay: Cleavage of purine analog nucleosides by human PNP (HPLC); format: biochemical; settings: for Percent of substrate cleaved by Human PNP, 1 mM: substrate 1 mM
# T1 sequence (P00491 1-289): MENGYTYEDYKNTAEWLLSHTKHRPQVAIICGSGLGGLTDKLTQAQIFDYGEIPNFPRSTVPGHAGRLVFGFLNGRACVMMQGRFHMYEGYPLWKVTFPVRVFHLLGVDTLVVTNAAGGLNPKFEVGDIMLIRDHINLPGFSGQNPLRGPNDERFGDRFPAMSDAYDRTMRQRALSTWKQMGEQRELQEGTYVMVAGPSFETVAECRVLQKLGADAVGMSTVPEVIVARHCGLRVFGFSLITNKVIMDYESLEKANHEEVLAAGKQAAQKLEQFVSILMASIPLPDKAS
# [2] = target: E. coli PNP (Escherichia coli, UniProt P0ABP8); format: biochemical
# [3] = literature; cited from earlier work
# [4] = system: D54 glioma tumors; assay: D54 tumors of mixed wild-type and transduced cells (80 to 20); settings: in vivo
# [5] = system: PNP transduced tumors; format: in vivo; settings: for Anti-tumor effect on PNP transduced tumors in mice: mouse, in vivo
# [6] = system: 16/C-PNP cells; assay: 16/C-PNP tumors in athymic nude mice; settings: 100 mg/kg IP 3 id × 3 d; monophosphate
# [7] = system: 16/C-PNP tumors; assay: E. coli PNP-transduced 16/C tumors in B6C3F1 mice; format: in vivo
# Protocol: (§1) Transduced 16/C cells were implanted in mice by subcutaneous injection of approximately 10^6 cells harvested from the cultures of stably transduced 16/C cells described above. The mice were examined visibly for tumor growth and those with developing tumors were maintained. To prepare mice for use in the in vivo experiments, the tumors were removed from mice with significant tumor growth and cut into 30-60 mg pieces. One 30-60 mg piece of the tumor was subcutaneously implanted into the subaxillary region of each female B6C3F1 mouse. The tumors were allowed to develop and mice with tumors of 100 mm^3 were used.
# Six mice per group with established PNP-transduced 16/C tumors were treated with aqueous control solution, MeP-dR or F-ara AMP, as above. […] (Table III, 16/C-PNP treatment.)
# [8] = system: wild type murine breast carcinoma cells (16/C cell line); assay: Wild-type 16/C tumors in nude mice; format: in vivo; settings: FIG. 6
# Protocol: For studies conducted with nu/nu mice, cells obtained from stable cultures of transduced cell lines were injected subcutaneously into the right or left flank of the mice. Mice with visible tumor growth were used for further studies. For the administration of purine prodrug, mice were administered MeP-dR or F-araAMP by IP injection.
# Four to five nude (nu/nu) mice per group were inoculated with wild type murine breast carcinoma cells (16/C cell line), or PNP transduced 16/C cells. Mice with established tumors (approximately 100 mm^3) were treated with MeP-dR (100 mg/kg/d IP×3 d) or F-araAMP (100 mg/kg/IP 3 id×3 d).
# [9] = system: D54-PNP tumors; assay: E. coli PNP-transduced D54 glioma tumors in nude mice; format: in vivo; settings: previous studies
# Protocol: Female athymic nude mice (nu/nu) were implanted sc with 2×10^7 cells of either D54 parental tumor cells (D54-wt) or D54 tumor cells that had been transduced with the E. coli PNP (D54-PNP). After the tumors had grown to approximately 150 mg, they were treated ip with either vehicle or 67 mg/kg of MeP-dR (IP) once a day for 3 days (days 6, 7 and 8 after implantation). The tumor sizes were measured twice a week after treatment.
# A confirmation experiment was set up exactly as described above, except that animals were treated with two doses of MeP-dR (45 and 67 mg/kg) (FIGS. 10 and 11). The results of this experiment were similar (Table V). There were 8 of 10 complete regressions in mice bearing the D54-PNP tumors that were treated with 67 mg/kg of MeP-dR. In 4 mice the tumors subsequently returned and grew. There were still 4 of 10 tumor-free survivors 60 days after the treatment had stopped. […] There were 2 of 10 complete regressions and 3 partial responses. […] The delay in the time required to double twice due to treatment with MeP-dR was 5 to 6 days in the non-transduced tumors and greater than 24 days in transduced tumors. In this experiment, the growth rate of the D54-PNP tumors was considerably slower than it was in the first experiment. There was no change in the growth rate of the D54-wt tumors. The reason for the slow growth rate of the D54-PNP tumors in this experiment is not known. […] (In other words, if a tumor was too small to measure, it was not included in the average size). This means that the overall tumor regressions in the D54 PNP group are actually much more pronounced than they appear in FIGS. 8-11.
# [10] = system: wild-type 16/C tumors; assay: Wild-type 16/C tumors in B6C3F1 mice; format: in vivo
# Protocol: as §1
# Six mice (B6C3F1) per group with established wild type 16/C tumors were treated with an aqueous control solution, MeP-dR (100 mg/kg IP qd×3d) or 2-fluoro-arabinofuranosyladenine monophosphate (F-araAMP) (100 mg/kg IP, […]). The wild type tumors grew rapidly in the presence or absence of either of the prodrugs. […] (Table III, Wild-type 16/C treatment).
# [11] = system: tumor cells transduced with the E. coli PNP; assay: Killing of PNP-transduced tumor cells in vitro by other prodrugs; format: cell-based
# Excerpt: In addition to MeP-dR, two other prodrugs suitable for E. coli PNP activation in tumor cells can be applied to the methodology of the present invention. These prodrugs are F-araA and 2-F-2′deoxyadenosine. […] As desired, this dose had no effect on control untransduced, tumor cells.
# [12] = substrate 100 μM, 0.1 unit/ml enzyme, 25° C., 1 hour, stopped by boiling
# [13] = 25° C., 1 hour, stopped by boiling
# [14] = IP for three days, MeP-dR 100, F-araAMP 500 mg/kg/day
# [15] = 100 μM in the presence of 1 mM deoxycytidine
# Chain of E. coli PNP (P0ABP8 2-239): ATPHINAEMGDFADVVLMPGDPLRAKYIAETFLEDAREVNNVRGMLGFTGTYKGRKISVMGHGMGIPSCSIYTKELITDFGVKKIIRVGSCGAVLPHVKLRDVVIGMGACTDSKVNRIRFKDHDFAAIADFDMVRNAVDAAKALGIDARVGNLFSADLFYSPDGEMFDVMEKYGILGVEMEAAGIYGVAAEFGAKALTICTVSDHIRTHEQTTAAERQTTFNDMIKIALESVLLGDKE
compound,measurement,setting,value
"Nc1cc(Cl)c2ncn([C@@H]3O[C@H](CO)[C@@H](O)[C@H]3O)c2n1 [1-deaza-2-amino-6-Cl-purine-riboside, 2-amino-6-chloro-1-deazapurine riboside]",Substrate quality for mammalian (human) PNP,[1]; in words,poor substrates
same,"Percent of substrate cleaved by Human PNP, 100 μM",[1]; [12],0(88) Percent and 0(86) Percent
same,"Percent of substrate cleaved by Human PNP, 1 mM",[1]; [13],0(52) Percent and 0(47) Percent
same,"Percent of substrate cleaved by E. coli PNP, 100 μM",[2],62(87)16(23) Percent and 41(86)15(21) Percent
same,"Percent of substrate cleaved by E. coli PNP, 1 mM",[2],62(87)16(23) Percent and 41(86)15(21) Percent
same,Substrate quality for bacterial (E. coli) PNP,[2],good substrates
same,Toxicity of prodrug relative to its purine analog,[3],much less toxic than their respective purine analogs
Nc1nc(F)nc2c1ncn2[C@@H]1O[C@H](CO)[C@@H](O)[C@H]1F [2-F-2′-F-2′-deoxyadenosine],"Percent of substrate cleaved by E. coli PNP, 100 μM",[2],0(86) Percent
same,"Percent of substrate cleaved by E. coli PNP, 1 mM",[2],0(21) Percent
same,Substrate quality for bacterial (E. coli) PNP,[2],poor substrates
"C[C@H]1O[C@@H](n2cnc3c(N)nc(F)nc32)[C@H](O)[C@@H]1O [2-F-5′-deoxyadenosine, 2-fluoro-5′-deoxyadenosine]",Substrate quality for mammalian (human) PNP,[1]; in words,poor substrates
same,Substrate quality for bacterial (E. coli) PNP,[2],good substrates
"Nc1ncnc2c1ncn2[C@H]1CC[C@@H](CO)O1 [2′,3′-dideoxy adenosine, 2′,3′-dideoxyadenosine]",Substrate quality for mammalian (human) PNP,[1]; in words,poor substrates
same,Substrate quality for bacterial (E. coli) PNP,[2],poor substrates
"Nc1ncnc2c1ncn2[C@@H]1O[C@H](CO)C[C@H]1O [3′-deoxy adenosine, 3′-deoxyadenosine]",Substrate quality for mammalian (human) PNP,[1]; in words,poor substrates
same,Substrate quality for bacterial (E. coli) PNP,[2],poor substrates
NC[C@H]1O[C@@H](n2cnc3c(N)ncnc32)[C@H](O)[C@@H]1O [5′-amino-5′-deoxyadenosine],Substrate quality for mammalian (human) PNP,[1]; in words,not cleaved
same,Substrate quality for mammalian (human) PNP,"[1]; in words, listed as 50-amino-50-deoxyadenosine",poor substrates
same,Substrate quality for bacterial (E. coli) PNP,[2],moderate substrates; also recorded: poorly cleaved
NC(=O)[C@H]1O[C@@H](n2cnc3c(N)ncnc32)[C@H](O)[C@@H]1O [5′-carboxamide of adenosine],"Percent of substrate cleaved by Human PNP, 100 μM",[1],0(81) Percent and 0(82) Percent
same,Substrate quality for mammalian (human) PNP,[1],poor substrates
same,Substrate quality for bacterial (E. coli) PNP,[2],poor substrates
Nc1cc2ncn(C3O[C@H](CO)[C@@H](O)[C@H]3O)c2c(=O)[nH]1 (stereo partly drawn) [7-ribosyl-3-deazaguanine],Substrate quality for mammalian (human) PNP,[1]; in words,poor substrates
same,Substrate quality for bacterial (E. coli) PNP,[2],good substrates
same,Toxicity of prodrug relative to its purine analog,[3],much less toxic than their respective purine analogs
OC[C@H]1OC(n2cnc3ncnc(S)c32)[C@H](O)[C@@H]1O (stereo partly drawn) [7-ribosyl-6-mercaptopurine],Substrate quality for mammalian (human) PNP,[1]; in words,poor substrates
"O=c1[nH]cnc2ncn(C3O[C@H](CO)[C@@H](O)[C@H]3O)c12 (stereo partly drawn) [7-ribosyl-hypoxanthine, 7-ribosylhypoxanthine]",Substrate quality for mammalian (human) PNP,[1]; in words,moderate to good substrates
same,Substrate quality for bacterial (E. coli) PNP,[2],moderate to good substrates
"Nc1nc(F)nc2c1ncn2[C@@H]1O[C@H](COP(=O)(O)O)[C@@H](O)[C@@H]1O [F-araAMP, 2-fluoro-arabinofuranosyladenine monophosphate, reference compound]",Activity against tumors of wild-type and transduced cells at 80 to 20,[4],less active
same,Anti-tumor effect on PNP transduced tumors in mice,[5],in vivo regression
same,Effect of F-araAMP on growth of 16/C tumors expressing E. coli PNP,[6],growth delay for at least ten days; also recorded: significantly inhibited the growth
same,Complete Regressions/Total,[7]; [14],0/6
same,Day delay (Treated-control),[7]; [14],3.3 days
same,Nonspecific Deaths/Total,[7]; [14],0/6
same,"Delay in time for three tumor doublings, in words",[7]; p<0.01,statistically significant delay
same,Days for tumor to double 3 times mean/SD,[7]; tumors that completely regressed not included,12.1 ± 1.6 days
same,Effect on growth of wild-type 16/C tumors,[8],only a small effect on tumor growth
same,Activity against D54 glioma tumors expressing the E. coli PNP gene,[9],good activity
same,Complete Regressions/Total,[10]; [14],0/6
same,Day delay (Treated-control),[10]; [14],2.7 days
same,Nonspecific Deaths/Total,[10]; [14],0/6
same,"Delay in tumor growth, in words",[10]; wild type 16/C,no statistically significant delay in tumor growth
"Nc1nc(F)nc2c1ncn2[C@H]1C[C@H](O)[C@@H](CO)O1 [F-dAdo, 2-fluoro-2′-deoxyadenosine]",Activity against tumors of wild-type and transduced cells at 80 to 20,[4],less active
same,Substrate quality for mammalian (human) PNP,[1]; in words,poor substrates
same,Substrate quality for bacterial (E. coli) PNP,[2],good substrates
same,Tolerability in mice,[5]; doses similar to MeP-dR,without toxicity
same,Anti-tumor effect on PNP transduced tumors in mice,[5],strong anti-tumor effects
same,Killing of PNP-transduced tumor cells in vitro,[11],high level killing
same,Effect on control untransduced tumor cells,[11]; [15],no effect
same,Killing when as few as 1% of tumor cells express the gene,[11]; [15],kills cells transduced with the E. coli PNP
same,Activity against D54 glioma tumors expressing the E. coli PNP gene,[9],good activity
CC1(C)OC2C(C(N)=O)OC(n3cnc4c(N)ncnc43)C2O1 (stereo not drawn) [isopropylidine of the 5′-carboxamide of adenosine],"Percent of substrate cleaved by Human PNP, 100 μM",[1],0(81) Percent and 0(82) Percent
same,Substrate quality for mammalian (human) PNP,[1],poor substrates
same,Substrate quality for bacterial (E. coli) PNP,[2],poor substrates
Nc1ncnc2c1ncn2C1OC(CO)C(O)C1O (stereo not drawn) [xylosyl adenine],"Percent of substrate cleaved by Human PNP, 100 μM",[1]; [12],0(81) Percent and 0(82) Percent
Nc1ncnc2c1ncn2[C@H]1O[C@H](CO)[C@@H](O)[C@H]1O [α-adenosine],"Percent of substrate cleaved by Human PNP, 100 μM",[1]; # line: assay terminated by filtering and not by boiling,0(87**) Percent
same,Substrate quality for mammalian (human) PNP,[1]; in words,poor substrates; also recorded: not cleaved
same,"Percent of substrate cleaved by Human PNP, 100 μM",[1]; [12],0(88) Percent and 0(86) Percent
same,"Percent of substrate cleaved by Human PNP, 1 mM",[1]; [13],0(50) Percent and 0(47) Percent
same,Substrate quality for bacterial (E. coli) PNP,[2],poorly cleaved
xylosyl methylpurine [xylosylmethylpurine],Substrate quality for mammalian (human) PNP,[1]; in words,poor substrates
same,"Percent of substrate cleaved by Human PNP, 100 μM",[1]; [12],0(88) Percent and 0(86) Percent
same,"Percent of substrate cleaved by Human PNP, 1 mM",[1]; [13],0(50) Percent and 0(47) Percent
same,"Percent of substrate cleaved by E. coli PNP, 100 μM",[2],0(86) Percent
same,"Percent of substrate cleaved by E. coli PNP, 1 mM",[2],0(21) Percent
same,Substrate quality for bacterial (E. coli) PNP,[2],poor substrates
